# According to patent US8901118B2, “Compounds and methods for kinase modulation, and indications therefor” (Plexxikon Inc., priority 2010, dated 2014):
# pIC50: −log10 of the molar value.
# Legend:
# BCR-NTRK1 BaF3 cells = target: T1, BCR-NTRK1 BaF3 cells (Homo sapiens, UniProt P04629); assay: BaF3 BCR-NTRK1 cell proliferation assay (ATPlite); assay type: cell-based; conditions: read-out: Inhibition of Cell Proliferation IC50, BCR/BaF3 TrkA
# T1 construct: fused on or other part: P11274 (Breakpoint cluster region protein)
# Procedure, shortened: (§1)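 BaF3 lines were seeded at 10,000 cells/well in growth medium with 1 mg/mL G418 but no IL-3, and MV-4-11 cells at 25,000 cells/well; plates were left overnight at 37 °C. Compounds were added as an 8-point 1:3 series with a top concentration of 10 μM and incubated 3 days. IC50 was taken from ATPlite luminescence.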
# CYP2C19 = CYP2C19 (Homo sapiens, UniProt P33261); assay: CYP2C19 inhibition (fluorescent substrate CEC); assay type: in vitro ADME; conditions: read-out: Cyp IC50 2C19
# Procedure, shortened: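 Inhibition is measured as the drop in fluorescent metabolite formation across a 10-point compound titration with NADPH regeneration at 37 °C. Incubation lasts 15 min for CYP1A2, 45 min for CYP2C9 and 30 min for CYP2C19 and CYP2D6.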
# BCR-NTRK2 BaF3 cells = target: T2, BCR-NTRK2 BaF3 cells (Homo sapiens, UniProt Q16620); assay: BaF3 BCR-NTRK2 cell proliferation assay (ATPlite); assay type: cell-based; conditions: read-out: Inhibition of Cell Proliferation IC50, BCR/BaF3 TrkB
# T2 construct: fused on or other part: P11274 (Breakpoint cluster region protein)
# Procedure, shortened: as §1
# BCR-FMS BaF3 cells = target: T3, BCR-FMS BaF3 cells (Homo sapiens, UniProt P07333); assay: BaF3 BCR-FMS cell proliferation assay (ATPlite); assay type: cell-based; conditions: read-out: Inhibition of Cell Proliferation IC50, BCR/BaF3 Fms
# T3 construct: fused on or other part: P11274 (Breakpoint cluster region protein)
# T3 sequence (P07333 582-910): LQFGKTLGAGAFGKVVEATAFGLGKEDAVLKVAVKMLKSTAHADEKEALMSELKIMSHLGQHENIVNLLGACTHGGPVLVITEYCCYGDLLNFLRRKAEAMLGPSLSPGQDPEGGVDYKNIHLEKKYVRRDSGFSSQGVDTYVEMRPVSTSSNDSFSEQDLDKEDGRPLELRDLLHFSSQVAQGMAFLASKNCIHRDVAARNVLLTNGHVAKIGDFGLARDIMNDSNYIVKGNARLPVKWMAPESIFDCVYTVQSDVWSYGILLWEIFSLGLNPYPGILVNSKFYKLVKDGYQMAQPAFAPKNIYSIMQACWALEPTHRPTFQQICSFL
# Procedure, shortened: as §1
# CYP3A4(BFC) = CYP3A4(BFC) (Homo sapiens, UniProt P08684); assay: CYP3A4(BFC) inhibition; assay type: in vitro ADME; conditions: CYP3A4, substrate BFC; read-out: Cyp IC50 3A4(BFC)
# Procedure, shortened: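 Inhibition of human CYP3A4 with the BFC substrate was measured by fluorescence loss of the metabolized product. Compounds at 100 mM in DMSO were diluted 1 μL into 82 μL acetonitrile, then 11 μL into 204 μL cofactor mix with NADPH regeneration solutions, and serially diluted 1:1 to 10 points. Plates were incubated 30 min at 37° C and read at 409 ex/460 em to obtain IC50.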
# T1 sequence (P04629 510-781): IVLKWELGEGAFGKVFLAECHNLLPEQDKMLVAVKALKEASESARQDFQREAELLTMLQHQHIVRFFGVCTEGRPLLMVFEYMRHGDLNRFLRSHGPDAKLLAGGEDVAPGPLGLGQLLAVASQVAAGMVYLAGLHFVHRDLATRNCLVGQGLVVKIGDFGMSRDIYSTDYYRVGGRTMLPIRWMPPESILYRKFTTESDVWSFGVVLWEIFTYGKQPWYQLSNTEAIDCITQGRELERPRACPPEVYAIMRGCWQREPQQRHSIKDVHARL
# Chain of CYP3A4(BFC) (P08684 whole entry): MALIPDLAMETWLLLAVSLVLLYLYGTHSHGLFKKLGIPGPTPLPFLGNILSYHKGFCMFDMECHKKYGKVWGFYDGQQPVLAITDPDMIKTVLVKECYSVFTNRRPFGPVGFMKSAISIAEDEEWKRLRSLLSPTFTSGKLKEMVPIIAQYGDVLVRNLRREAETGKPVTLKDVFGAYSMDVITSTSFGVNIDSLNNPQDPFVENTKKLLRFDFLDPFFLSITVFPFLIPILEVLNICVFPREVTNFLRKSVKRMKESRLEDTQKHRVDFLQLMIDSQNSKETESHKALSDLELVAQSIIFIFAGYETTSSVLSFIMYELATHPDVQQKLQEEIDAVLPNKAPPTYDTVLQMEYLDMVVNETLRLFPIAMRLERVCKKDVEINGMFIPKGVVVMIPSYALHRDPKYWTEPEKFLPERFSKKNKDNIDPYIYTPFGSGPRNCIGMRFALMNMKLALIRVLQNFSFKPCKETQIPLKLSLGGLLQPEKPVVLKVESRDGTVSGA
# Chain of CYP2C19 (P33261 whole entry): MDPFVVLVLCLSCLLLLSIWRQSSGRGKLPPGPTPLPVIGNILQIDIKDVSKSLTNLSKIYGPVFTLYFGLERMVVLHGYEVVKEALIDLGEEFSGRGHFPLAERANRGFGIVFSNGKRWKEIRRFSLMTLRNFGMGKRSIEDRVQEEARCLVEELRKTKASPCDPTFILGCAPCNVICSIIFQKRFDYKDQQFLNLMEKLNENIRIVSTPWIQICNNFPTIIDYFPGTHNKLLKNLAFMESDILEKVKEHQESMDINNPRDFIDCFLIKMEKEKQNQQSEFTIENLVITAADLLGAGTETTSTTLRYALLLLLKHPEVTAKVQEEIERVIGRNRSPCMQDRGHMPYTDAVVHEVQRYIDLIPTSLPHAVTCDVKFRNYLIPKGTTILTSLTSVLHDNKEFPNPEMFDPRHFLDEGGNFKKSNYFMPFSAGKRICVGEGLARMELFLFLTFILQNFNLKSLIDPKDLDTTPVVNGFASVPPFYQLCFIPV
# T2 sequence (Q16620 538-807): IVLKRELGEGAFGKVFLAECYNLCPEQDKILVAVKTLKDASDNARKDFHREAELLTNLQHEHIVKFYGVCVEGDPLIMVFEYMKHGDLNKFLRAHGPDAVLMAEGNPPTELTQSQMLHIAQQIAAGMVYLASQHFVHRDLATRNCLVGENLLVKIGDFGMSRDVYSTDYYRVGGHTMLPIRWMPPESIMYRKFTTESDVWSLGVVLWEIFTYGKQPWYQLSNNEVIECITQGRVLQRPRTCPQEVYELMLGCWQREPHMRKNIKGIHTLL
Structure (SMILES),pIC50 (BCR-NTRK1 BaF3 cells),pIC50 (CYP2C19),pIC50 (BCR-NTRK2 BaF3 cells),pIC50 (BCR-FMS BaF3 cells),pIC50 (CYP3A4(BFC))
"O=C(c1ccc(NC2CCC(F)(F)CC2)nc1)c1c[nH]c2ncnc(NCC(F)(F)F)c12 [Compound P-4087, [6-[(4,4-difluorocyclohexyl)amino]-3-pyridyl]-[4-(2,2,2-trifluoroethylamino)-7H-pyrrolo[2,3-d]pyrimidin-5-yl]methanone]",> 6.00,< 5.00,> 7.00,> 6.00,< 5.00
"O=C(c1ccc(NC2CCC(F)(F)CC2)nc1)c1c[nH]c2ncnc(NC3CC3)c12 [Compound P-4088, [4-(cyclopropylamino)-7H-pyrrolo[2,3-d]pyrimidin-5-yl]-[6-[(4,4-difluorocyclohexyl)amino]-3-pyridyl]methanone]",> 7.00,< 5.00,> 7.00,> 7.00,< 5.00
"CNc1ncnc2[nH]cc(C(=O)c3ccc(NC4CCC(F)(F)CC4)nc3)c12 [Compound P-4089, [6-[(4,4-difluorocyclohexyl)amino]-3-pyridyl]-[4-(methylamino)-7H-pyrrolo[2,3-d]pyrimidin-5-yl]methanone]",> 6.00,< 5.00,> 7.00,> 7.00,< 5.00
"O=C(c1ccc(Nc2ccc(C3CC3)nc2)nc1F)c1c[nH]c2ncnc(NCC(F)(F)F)c12 [Compound P-4090, [6-[(6-cyclopropyl-3-pyridyl)amino]-2-fluoro-3-pyridyl]-[4-(2,2,2-trifluoroethylamino)-7H-pyrrolo[2,3-d]pyrimidin-5-yl]methanone]",> 7.00,< 5.00,> 8.00,> 7.00,< 5.00
"O=C(c1ccc(Nc2ccc(C(F)(F)F)nc2)nc1F)c1c[nH]c2ncnc(NC3CC3)c12 [Compound P-4091, [4-(cyclopropylamino)-7H-pyrrolo[2,3-d]pyrimidin-5-yl]-[2-fluoro-6-[[6-(trifluoromethyl)-3-pyridyl]amino]-3-pyridyl]methanone]",> 8.00,< 5.00,> 8.00,> 8.00,< 5.00
"CNc1ncnc2[nH]cc(C(=O)c3ccc(Nc4ccc(C(F)(F)F)nc4)nc3F)c12 [Compound P-4092, [2-fluoro-6-[[6-(trifluoromethyl)-3-pyridyl]amino]-3-pyridyl]-[4-(methylamino)-7H-pyrrolo[2,3-d]pyrimidin-5-yl]methanone]",> 8.00,> 5.30,> 8.00,> 8.00,< 5.00
"O=C(c1ccc(Nc2ccc(C3CC3)nc2)nc1F)c1c[nH]c2ncnc(NC3CC3)c12 [Compound P-4093, [4-(cyclopropylamino)-7H-pyrrolo[2,3-d]pyrimidin-5-yl]-[6-[(6-cyclopropyl-3-pyridyl)amino]-2-fluoro-3-pyridyl]methanone]",> 8.00,< 5.00,> 8.00,> 8.00,< 5.00
"CNc1ncnc2[nH]cc(C(=O)c3ccc(Nc4ccc(C5CC5)nc4)nc3F)c12 [Compound P-4094, [6-[(6-cyclopropyl-3-pyridyl)amino]-2-fluoro-3-pyridyl]-[4-(methylamino)-7H-pyrrolo[2,3-d]pyrimidin-5-yl]methanone]",> 8.00,> 5.30,> 8.00,> 7.00,< 5.00
"CCc1ccc(Nc2ccc(C(=O)c3c[nH]c4ncnc(NC5CCC5)c34)c(F)n2)cn1 [Compound P-4095, [4-(cyclobutylamino)-7H-pyrrolo[2,3-d]pyrimidin-5-yl]-[6-[(6-ethyl-3-pyridyl)amino]-2-fluoro-3-pyridyl]methanone]",> 8.00,< 5.00,> 8.00,> 8.00,< 5.00
"CCc1ccc(Nc2ccc(C(=O)c3c[nH]c4ncnc(NC5CCC(F)(F)CC5)c34)c(F)n2)cn1 [Compound P-4096, [4-[(4,4-difluorocyclohexyl)amino]-7H-pyrrolo[2,3-d]pyrimidin-5-yl]-[6-[(6-ethyl-3-pyridyl)amino]-2-fluoro-3-pyridyl]methanone]",> 8.00,> 5.30,> 8.00,> 8.00,< 5.00
"CCc1ccc(Nc2ccc(C(=O)c3c[nH]c4ncnc(N[C@@H](C)c5ccc(F)cc5)c34)c(F)n2)cn1 [Compound P-4097, [6-[(6-ethyl-3-pyridyl)amino]-2-fluoro-3-pyridyl]-[4-[[(1S)-1-(4-fluorophenyl)ethyl]amino]-7H-pyrrolo[2,3-d]pyrimidin-5-yl]methanone]",> 7.00,> 5.30,> 7.00,> 7.00,< 5.00
"CCc1ccc(Nc2ccc(C(=O)c3c[nH]c4ncnc(NCCCOC)c34)c(F)n2)cn1 [Compound P-4098, [6-[(6-ethyl-3-pyridyl)amino]-2-fluoro-3-pyridyl]-[4-(3-methoxypropylamino)-7H-pyrrolo[2,3-d]pyrimidin-5-yl]methanone]",> 8.00,> 5.30,> 8.00,> 7.00,< 5.00
"CCc1ccc(Nc2ccc(C(=O)c3c[nH]c4ncnc(NC5CCCC5)c34)c(F)n2)cn1 [Compound P-4099, [4-(cyclopentylamino)-7H-pyrrolo[2,3-d]pyrimidin-5-yl]-[6-[(6-ethyl-3-pyridyl)amino]-2-fluoro-3-pyridyl]methanone]",> 8.00,> 5.30,> 8.00,> 8.00,< 5.00
"CCCCNc1ncnc2[nH]cc(C(=O)c3ccc(Nc4ccc(CC)nc4)nc3F)c12 [Compound P-4100, [4-(butylamino)-7H-pyrrolo[2,3-d]pyrimidin-5-yl]-[6-[(6-ethyl-3-pyridyl)amino]-2-fluoro-3-pyridyl]methanone]",> 8.00,> 5.30,> 8.00,> 7.00,< 5.00
"CC(C)Nc1ncnc2[nH]cc(C(=O)c3ccc(NC4CCCCC4)nc3F)c12 [Compound P-4101, [6-(cyclohexylamino)-2-fluoro-3-pyridyl]-[4-(isopropylamino)-7H-pyrrolo[2,3-d]pyrimidin-5-yl]methanone]",> 7.00,5.00 to 5.30,> 8.00,> 8.00,< 5.00
"CNc1ncnc2[nH]cc(C(=O)c3ccc(NC4CCCCC4)nc3F)c12 [Compound P-4102, [6-(cyclohexylamino)-2-fluoro-3-pyridyl]-[4-(methylamino)-7H-pyrrolo[2,3-d]pyrimidin-5-yl]methanone]",> 6.00,> 5.30,> 7.00,> 8.00,< 5.00
"COc1cncc(Nc2ccc(C(=O)c3c[nH]c4ncnc(NCC(F)(F)F)c34)c(F)n2)c1 [Compound P-4103, [2-fluoro-6-[(5-methoxy-3-pyridyl)amino]-3-pyridyl]-[4-(2,2,2-trifluoroethylamino)-7H-pyrrolo[2,3-d]pyrimidin-5-yl]methanone]",> 6.00,< 5.00,< 6.00,> 7.00,< 5.00
"COc1cncc(Nc2ccc(C(=O)c3c[nH]c4ncnc(NC5CCCCC5)c34)c(F)n2)c1 [Compound P-4104, [4-(cyclohexylamino)-7H-pyrrolo[2,3-d]pyrimidin-5-yl]-[2-fluoro-6-[(5-methoxy-3-pyridyl)amino]-3-pyridyl]methanone]",> 7.00,5.00 to 5.30,> 7.00,> 7.00,< 5.00
"CCCNc1ncnc2[nH]cc(C(=O)c3ccc(Nc4cncc(OC)c4)nc3F)c12 [Compound P-4105, [2-fluoro-6-[(5-methoxy-3-pyridyl)amino]-3-pyridyl]-[4-(propylamino)-7H-pyrrolo[2,3-d]pyrimidin-5-yl]methanone]",> 7.00,< 5.00,> 6.00,> 7.00,< 5.00
"COc1cncc(Nc2ccc(C(=O)c3c[nH]c4ncnc(NC(C)C)c34)c(F)n2)c1 [Compound P-4106, [2-fluoro-6-[(5-methoxy-3-pyridyl)amino]-3-pyridyl]-[4-(isopropylamino)-7H-pyrrolo[2,3-d]pyrimidin-5-yl]methanone]",> 7.00,> 5.30,> 7.00,> 7.00,< 5.00
